# Data from patent US4570000A, “Nitrogen heterocycles” (Imperial Chemical Industries, PLC, priority 1981, dated 1986).
# What was measured:
# anaesthetised rats = experiment: intravenous toxicity in anaesthetised rats; type: in vivo; conditions: two anaesthetised rats, ten times the dose giving approximate 50% inhibition of gastric secretion in the anaesthetised rat
# Experimental: (§1) No overt toxicity or side effects were noted during the rat or dog tests. The compound 1-[3-(4-[2-(2,2,2-trifluoroethyl)guanidino]pyrimid-2-yloxy)propyl]imidazole was administered intravenously to groups of two anaesthetised rats and four conscious mice at doses which were respectively ten times and one hundred times the dose, in mg./kg., which produced an approximate 50% inhibition of gastric secretion in the anaesthetised rat.
# conscious mice = experiment: intravenous toxicity in conscious mice; type: in vivo; conditions: four conscious mice, one hundred times the dose giving approximate 50% inhibition of gastric secretion in the anaesthetised rat
# Experimental: as §1
compound,measurement,setting,value
"NC(=NCC(F)(F)F)Nc1ccnc(OCCCn2ccnc2)n1 [Example 6, 1-[3-(4-[2-(2,2,2-trifluoroethyl)guanidino]pyrimid-2-yloxy)propyl]imidazole]",toxic symptoms,anaesthetised rats,No toxic symptoms
same,toxic symptoms,conscious mice,No toxic symptoms
